According to patent EP0869969B1, “PEPTIDE CONJUGATES, USE THEREOF AS A DRUG, AND COMPOSITIONS CONTAINING them” (INSTITUT EUROPEEN DE BIOLOGIE CELLULAIRE, priority 1995, dated 2003):
Where “and” joins values, the source holds several entries; their conditions need not be identical. Identical values can stand only once. Starred links: 1 amine or outer side, 2 acyl side, 3 side chain; linkers in the order of their positions; H or OH if unused. Residues, ends and D or L forms follow the SMILES beside them. Adipoyl = O=C(CCCCC(=O)[*:2])[*:1]

Assays:
[1] = test system: MRC5, fibroblastes de poumon embryonnaire humain; assay: Type I collagen synthesis by cultured MRC5 fibroblasts, secondary immunofluorescence; type: cell-based; conditions: MRC5, results not shown
Text: (§1) La mise en évidence de l'influence du conjugué n' 7 sur la synthèse de collagène de type I par des cellules en culture a été réalisée sur deux types cellulaires : • des fibroblastes humains de plastie mammaire au 3ème passage, obtenus dans notre laboratoire de culture cellulaire à l'IEB, • des MRC5, fibroblastes de poumon embryonnaire humain non transformés au passage p38, obtenus à p 25-30 chez ICN FLOW.
(§2) Les cellules sont stimulées ou non avec le conjugué n° 7, puis elles sont observées au microscope pholoniquc à fluorescence après révélation du collagène de type I par une réaction d'immuno-fluorescence secondaire.
(§3) Les cellules sont ensemencées à raison de 70 000 cellules par ml pour les fibroblastes de primoculture et 20 000 pour les MRC5.
(§4) La culture est réalisée en DMEM 10% SVF dans les tubes de Leigton contenant une lamelle dans le fond du tube, volume final : 1,6 ml.
8 tubes sont prévus par type cellulaire : 3 témoins et 5 concentrations. […]
(§5) Les observations microscopiques sont réalisées sur un microscope droit à fluorescence Zeiss (Axioplan), surmonté d'une caméra 3 CCD Sony (MC-3215 P/M) reliée à un moniteur vidéo Trinitron avec écran couleur Sony. […]
(§6) Les cellules sont d'abord observées en contraste interférentiel et/ou de phase. Quand un champ est sélectionné, l'image est enregistrée, puis sans bouger d'endroit l'observation est réalisée en fluorescence et enregistrée. […]

[2] = test system: fibroblastes humains de plastie mammaire; assay: Type I collagen synthesis by cultured primary fibroblasts, secondary immunofluorescence (rhodamine/TRITC); type: cell-based, humain
Text: as §1, §2, §3, §4
8 tubes sont prévus par type cellulaire : 3 témoins et 5 concentrations.
Ces différentes solutions mères seront ajoutées au milieu de culture au moment du contact produit.
Les dilutions sont réalisées dans du PBS (Eurobio) - BSA 0,1% (Flucka) puis filtrées sur filtres 0,22 µm (Sartorius).
A J0, le milieu est éliminé et remplacé par du milieu frais auquel est ajouté le conjugué n° 7 aux différentes concentrations selon le tableau suivant :
Les témoins TO et T ne reçoivent que du milieu.
Le milieu est élimine; les tubes sont rincés 3 fois avec du DMEM sans sérum à 37° C. Les cellules sont fixées 20 mn à 4°C en présence de PFA 2,5% (Prolabo) dans du Hanks (Eurobio).
3 rinçages en DMEM sans sérum sont effectués suivis de 2 lavages 10 mn en PBS sans calcium ni magnésium (Eurobio). […]
as §5, §6

rat-OFA = assay: Wound-healing power in the rat: sutured flank incision, topical application, scar resistance to stretching by dynamometer; type: in vivo; conditions: for augmentation de la cicatrisation des plaies par rapport aux témoins: 5 jours; for Résistance des cicatrices à l'étirement, Moyenne: mean of treated group (control 24,5 +/- 1,5)
Method: Déterminer le pouvoir cicatrisant du peptide n° 7 administré chez le rat-OFA par applications topiques aux doses de 0,75 µg, 7,5 µg et 75 µg par animal pendant cinq jours.
I - Animaux : rats de souche OFA, OF1, IFFA-CREDO, pesant de 250 à 300 g.
Conjugué peptidique n° 7, correspondant la formule : Adipoyl-Lys-Lys-Gly-His-Lys-NH2.
Mis en solution dans le propylène glycol aux doses de 1,5 µg/ml, 15 µg/ml, 150 µg/ml.
Après anesthésie générale à l'éther, une incision de 5 cm de long a été pratiquée sur la flanc droit des animaux.
Une suture en fil trinyl 2/0 a été effectuée à raison d'un point tous les 0,5 cm.
Les animaux traités comme les témoins ont subi la même intervention dans les mêmes conditions.
Le traitement a débuté le lendemain de l'intervention sur les lots d'animaux traités aux doses de 0,5 ml de solution peptidique sur chaque incision.
Soit 0,75 µg, 7,5 µg et 75 µg de peptide par animal et par application pendant la durée du traitement, soit 5 jours.
Les animaux ont été mis en observation pendant 9 jours, ils ont ensuite été sacrifiés par une dose létale de penthiobarbital.
Les zones de peau en cours de cicatrisation ont été prélevées et soumises aux "tests" d'étirement au dynamomètre, pour mesurer la résistance de la cicatrice à l'étirement.
Une analyse statistique a été effectuée sur les valeurs de résistance obtenue au dynamomètre. Une analyse de variance et un test de "T" student a été pratiqué sur les valeurs individuelles, afin de définir le seuil de signification des résultats.

## NCCCC[C@H](NC(=O)[C@H](Cc1c[nH]cn1)NC(=O)CNC(=O)[C@H](CCCCN)NC(=O)[C@H](CCCCN)NC(=O)CCCCC(=O)O)C(N)=O [conjugué 7, Adipoyl-Lys-Lys-Gly-His-Lys-NH2] (Adipoyl-KKGHK-NH2)
[1]
  synthèse de collagène de type I: mêmes tendances
[2]; 10-11 M, fibroblastes de primoculture
  synthèse de collagène de type I: stimule très significativement
[2]; 10-11 M, untreated cells 32,78
  luminosité moyenne du rouge sur l'ensemble de l'image: 54,8
[2]; fibroblastes humains de primocultures, versus untreated cells
  stimulation de la synthèse de collagène de type 1: +67%
rat-OFA; topical, 0,75 µg par jour
  augmentation de la cicatrisation des plaies par rapport aux témoins: 14,5%
rat-OFA; topical, 0,75 µg/jour/5 jours, individual treated animals, sacrifice after 9 days
  Résistance des cicatrices à l'étirement "dynamométrie": 28,5 Dynes and 26,1 Dynes and 29,3 Dynes and 27,7 Dynes and 28,6 Dynes
rat-OFA; topical, 0,75 µg/jour/5 jours, mean of treated group (control 24,5+/-1,5)
  Résistance des cicatrices à l'étirement "dynamométrie", Moyenne: 28,0+/-1,2 Dynes
rat-OFA; topical, 75 µg par jour
  augmentation de la cicatrisation des plaies par rapport aux témoins: 59,6%
rat-OFA; topical, 7,5 µg par jour
  augmentation de la cicatrisation des plaies par rapport aux témoins: 30,9%
rat-OFA; topical, 7,5 µg/jour/5 jours (Tableau n° 2), individual treated animals
  Résistance des cicatrices à l'étirement, Dynes: 32,6 Dynes and 30,4 Dynes and 33,1 Dynes and 32,3 Dynes and 31,8 Dynes
rat-OFA; topical, 7,5 µg/jour/5 jours (Tableau n° 2)
  Résistance des cicatrices à l'étirement, Moyenne: 32,0 +/- 1,0 Dynes
rat-OFA; topical, Tableau n° 3, 7,5 µg/jour/5 jours, individual treated animals
  Résistance des cicatrices à l'étirement, Dynes: 39,8 Dynes and 41,3 Dynes and 37,5 Dynes and 36,2 Dynes and 40,7 Dynes
rat-OFA; topical, Tableau n° 3, 7,5 µg/jour/5 jours
  Résistance des cicatrices à l'étirement, Moyenne: 39,1+/-2,2 Dynes
rat-OFA; topical, day 9
  aspect des cicatrisations au 9ème jour: cicatrisation parfaitement plate, avec absence de bourrelets cicatriciels
rat-OFA; topical, overall conclusion
  action cicatrisante: action cicatrisante hautement significative
